# Test results: PubChem BioAssay AID1745844 (Carcinogenic Potency Database (CPDB), 2022)
# Several values for one entry are separate records, joined by “and”; a condition that tells them apart may be missing. Identical values can stand only once. Activity calls are given as the source filed them. How the calls were made is not given here.
# Test system: rodent lifetime carcinogenesis bioassay, tumor incidence TD50
# Experiment: chronic cancer bioassays in animals – CPDB, compiled studies (AID 1745844)
smiles,measurement,setting,value
c1ccc2occc2c1,TD50,"mouse, strain B6C3F1, females, by gavage, site: any site (literature study), lesion: several types, types named in the paper, dosed 103 weeks, study length 104 weeks",45.9 mg/kg/day
same,TD50,"mouse, strain B6C3F1, females, by gavage, site: forestomach + liver + lung, lesion: squamous-cell carcinoma + squamous-cell papilloma + hepatocellular adenoma + alveolar/bronchiolar adenoma + alveolar/bronchiolar, dosed 103 weeks, study length 104 weeks",33.4 mg/kg/day
same,TD50,"mouse, strain B6C3F1, females, by gavage, site: forestomach, lesion: squamous-cell carcinoma + squamous-cell papilloma, dosed 103 weeks, study length 104 weeks",145 mg/kg/day
same,TD50,"mouse, strain B6C3F1, females, by gavage, site: forestomach, lesion: squamous-cell papilloma, dosed 103 weeks, study length 104 weeks",172 mg/kg/day
same,TD50,"mouse, strain B6C3F1, females, by gavage, site: liver, lesion: hepatocellular adenoma + hepatocellular carcinoma + neoplastic nodule, dosed 103 weeks, study length 104 weeks",36.4 mg/kg/day
same,TD50,"mouse, strain B6C3F1, females, by gavage, site: liver, lesion: hepatocellular adenoma + hepatocellular carcinoma, dosed 103 weeks, study length 104 weeks",36.4 mg/kg/day
same,TD50,"mouse, strain B6C3F1, females, by gavage, site: liver, lesion: hepatocellular adenoma, dosed 103 weeks, study length 104 weeks",34.4 mg/kg/day
same,TD50,"mouse, strain B6C3F1, females, by gavage, site: lung, lesion: alveolar/bronchiolar adenoma + alveolar/bronchiolar carcinoma, dosed 103 weeks, study length 104 weeks",174 mg/kg/day
same,TD50,"mouse, strain B6C3F1, females, by gavage, site: lung, lesion: alveolar/bronchiolar adenoma, dosed 103 weeks, study length 104 weeks",224 mg/kg/day
same,TD50,"mouse, strain B6C3F1, females, by gavage, site: multiple organs + spleen, lesion: malignant lymphoma, undifferentiated type, dosed 103 weeks, study length 104 weeks",322 mg/kg/day
same,TD50,"mouse, strain B6C3F1, males, by gavage, site: any site (literature study), lesion: several types, types named in the paper, dosed 103 weeks, study length 104 weeks",54.3 mg/kg/day
same,TD50,"mouse, strain B6C3F1, males, by gavage, site: forestomach + liver + lung, lesion: squamous-cell carcinoma + squamous-cell papilloma + hepatocellular adenoma + hepatoblastoma + hepatocellular carcinoma + alveolar/, dosed 103 weeks, study length 104 weeks",23.9 mg/kg/day
same,TD50,"mouse, strain B6C3F1, males, by gavage, site: forestomach, lesion: squamous-cell carcinoma + squamous-cell papilloma, dosed 103 weeks, study length 104 weeks",108 mg/kg/day
same,TD50,"mouse, strain B6C3F1, males, by gavage, site: forestomach, lesion: squamous-cell carcinoma, dosed 103 weeks, study length 104 weeks",383 mg/kg/day
same,TD50,"mouse, strain B6C3F1, males, by gavage, site: forestomach, lesion: squamous-cell papilloma, dosed 103 weeks, study length 104 weeks",154 mg/kg/day
same,TD50,"mouse, strain B6C3F1, males, by gavage, site: liver, lesion: hepatoblastoma + hepatocellular carcinoma, dosed 103 weeks, study length 104 weeks",114 mg/kg/day
same,TD50,"mouse, strain B6C3F1, males, by gavage, site: liver, lesion: hepatoblastoma, dosed 103 weeks, study length 104 weeks",102 mg/kg/day
same,TD50,"mouse, strain B6C3F1, males, by gavage, site: liver, lesion: hepatocellular adenoma + hepatoblastoma + hepatocellular carcinoma, dosed 103 weeks, study length 104 weeks",19.8 mg/kg/day
same,TD50,"mouse, strain B6C3F1, males, by gavage, site: liver, lesion: hepatocellular adenoma + hepatocellular carcinoma + neoplastic nodule, dosed 103 weeks, study length 104 weeks",21.3 mg/kg/day
same,TD50,"mouse, strain B6C3F1, males, by gavage, site: liver, lesion: hepatocellular adenoma + hepatocellular carcinoma, dosed 103 weeks, study length 104 weeks",21.3 mg/kg/day
same,TD50,"mouse, strain B6C3F1, males, by gavage, site: liver, lesion: hepatocellular adenoma, dosed 103 weeks, study length 104 weeks",20.5 mg/kg/day
same,TD50,"mouse, strain B6C3F1, males, by gavage, site: lung, lesion: alveolar/bronchiolar adenoma + alveolar/bronchiolar carcinoma, dosed 103 weeks, study length 104 weeks",160 mg/kg/day
same,TD50,"mouse, strain B6C3F1, males, by gavage, site: lung, lesion: alveolar/bronchiolar adenoma, dosed 103 weeks, study length 104 weeks",136 mg/kg/day
same,TD50,"mouse, strain B6C3F1, males, by gavage, site: multiple organs, lesion: malignant lymphoma, lymphocytic type, dosed 103 weeks, study length 104 weeks",919 mg/kg/day
same,TD50,"rat, strain Fischer 344, females, by gavage, site: any site (literature study), lesion: several types, types named in the paper, dosed 103 weeks, study length 104 weeks",577 mg/kg/day
same,TD50,"rat, strain Fischer 344, females, by gavage, site: kidney, lesion: tubular-cell adenocarcinoma, dosed 103 weeks, study length 104 weeks",424 mg/kg/day
same,TD50,"rat, strain Fischer 344, females, by gavage, site: liver, lesion: hepatocellular adenoma + hepatocellular carcinoma + neoplastic nodule, dosed 103 weeks, study length 104 weeks",2090 mg/kg/day
same,TD50,"rat, strain Fischer 344, females, by gavage, site: lung, lesion: alveolar/bronchiolar adenoma + alveolar/bronchiolar carcinoma, dosed 103 weeks, study length 104 weeks",418 mg/kg/day
same,TD50,"rat, strain Fischer 344, females, by gavage, site: lung, lesion: alveolar/bronchiolar adenoma, dosed 103 weeks, study length 104 weeks",530 mg/kg/day
same,TD50,"rat, strain Fischer 344, females, by gavage, site: subcutaneous tissue, lesion: neurilemoma, malignant, dosed 103 weeks, study length 104 weeks",98.8 mg/kg/day
same,TD50,"rat, strain Fischer 344, females, by gavage, site: tongue, lesion: squamous-cell papilloma, dosed 103 weeks, study length 104 weeks",574 mg/kg/day
same,TD50,"rat, strain Fischer 344, males, by gavage, site: any site (literature study), lesion: several types, types named in the paper, dosed 103 weeks, study length 104 weeks",22.5 mg/kg/day
same,TD50,"rat, strain Fischer 344, males, by gavage, site: liver + multiple organs, lesion: mononuclear-cell leukemia, dosed 103 weeks, study length 104 weeks",55.3 mg/kg/day
same,TD50,"rat, strain Fischer 344, males, by gavage, site: lung, lesion: alveolar/bronchiolar carcinoma, dosed 103 weeks, study length 104 weeks",166 mg/kg/day
same,TD50,"rat, strain Fischer 344, males, by gavage, site: mammary gland, lesion: fibroadenoma, dosed 103 weeks, study length 104 weeks",271 mg/kg/day
same,TD50,"rat, strain Fischer 344, males, by gavage, site: pituitary gland, lesion: adenoma, NOS, dosed 103 weeks, study length 104 weeks",45.8 mg/kg/day
same,TD50,"rat, strain Fischer 344, males, by gavage, site: testis, lesion: interstitial-cell tumor, dosed 103 weeks, study length 104 weeks",8.03 mg/kg/day (inactive)
same,TD50,"rat, strain Fischer 344, males, by gavage, site: thyroid gland, lesion: follicular-cell carcinoma, dosed 103 weeks, study length 104 weeks",389 mg/kg/day
CN(N=O)C(=O)c1c(N(C)N=O)ncn1C,TD50,"rat, strain BD IX, both sexes, by gavage, site: forestomach, lesion: squamous-cell carcinoma, dosed 41 weeks, study length 52 weeks",0.183 mg/kg/day
NNc1nc(-c2ccccc2)cs1,TD50,"rat, strain Sprague-Dawley, females, in feed, site: any site (literature study), lesion: several types, types named in the paper, dosed 46 weeks, study length 66 weeks",311 mg/kg/day (inactive)
CC(C)CCCCCCOC(=O)c1ccccc1C(=O)OCCCCCCC(C)C,TD50,"mouse, strain B6C3F1, females, in feed, site: liver, lesion: hepatocellular carcinoma, dosed 78 weeks, study length 104 weeks",3340 mg/kg/day
same,TD50,"mouse, strain B6C3F1, females, in feed, site: liver, lesion: hepatocellular carcinoma, dosed 79 weeks, study length 79 weeks",5240 mg/kg/day
same,TD50,"mouse, strain B6C3F1, females, in feed, site: liver, lesion: hepatocellular carcinoma, dosed 104 weeks, study length 104 weeks",2620 mg/kg/day
same,TD50,"mouse, strain B6C3F1, females, in feed, site: liver, lesion: several types, types named in the paper, dosed 79 weeks, study length 79 weeks",2860 mg/kg/day
same,TD50,"mouse, strain B6C3F1, females, in feed, site: liver, lesion: several types, types named in the paper, dosed 104 weeks, study length 104 weeks",1440 mg/kg/day
same,TD50,"mouse, strain B6C3F1, males, in feed, site: liver, lesion: hepatocellular carcinoma, dosed 78 weeks, study length 104 weeks",4100 mg/kg/day
same,TD50,"mouse, strain B6C3F1, males, in feed, site: liver, lesion: hepatocellular carcinoma, dosed 79 weeks, study length 79 weeks",1460 mg/kg/day
same,TD50,"mouse, strain B6C3F1, males, in feed, site: liver, lesion: hepatocellular carcinoma, dosed 104 weeks, study length 104 weeks",2920 mg/kg/day
same,TD50,"mouse, strain B6C3F1, males, in feed, site: liver, lesion: several types, types named in the paper, dosed 79 weeks, study length 79 weeks",1460 mg/kg/day
same,TD50,"mouse, strain B6C3F1, males, in feed, site: liver, lesion: several types, types named in the paper, dosed 104 weeks, study length 104 weeks",1590 mg/kg/day
same,TD50,"rat, strain Fischer 344, females, in feed, site: all sites, lesion: mononuclear-cell leukemia, dosed 78 weeks, study length 104 weeks",1140 mg/kg/day
same,TD50,"rat, strain Fischer 344, females, in feed, site: all sites, lesion: mononuclear-cell leukemia, dosed 79 weeks, study length 79 weeks",1690 mg/kg/day
same,TD50,"rat, strain Fischer 344, females, in feed, site: all sites, lesion: mononuclear-cell leukemia, dosed 104 weeks, study length 104 weeks",458 mg/kg/day and 1150 mg/kg/day
same,TD50,"rat, strain Fischer 344, females, in feed, site: liver, lesion: hepatocellular adenoma, dosed 79 weeks, study length 79 weeks",3440 mg/kg/day
same,TD50,"rat, strain Fischer 344, females, in feed, site: liver, lesion: hepatocellular carcinoma, dosed 78 weeks, study length 104 weeks",14300 mg/kg/day
same,TD50,"rat, strain Fischer 344, females, in feed, site: liver, lesion: hepatocellular carcinoma, dosed 104 weeks, study length 104 weeks",7980 mg/kg/day
same,TD50,"rat, strain Fischer 344, males, in feed, site: all sites, lesion: mononuclear-cell leukemia, dosed 78 weeks, study length 104 weeks",445 mg/kg/day
same,TD50,"rat, strain Fischer 344, males, in feed, site: kidney, lesion: tubular carcinoma, dosed 78 weeks, study length 104 weeks",2960 mg/kg/day
same,TD50,"rat, strain Fischer 344, males, in feed, site: kidney, lesion: tubular carcinoma, dosed 104 weeks, study length 104 weeks",17200 mg/kg/day
same,TD50,"rat, strain Fischer 344, males, in feed, site: liver, lesion: hepatocellular carcinoma, dosed 78 weeks, study length 104 weeks",9740 mg/kg/day
same,TD50,"rat, strain Fischer 344, males, in feed, site: liver, lesion: hepatocellular carcinoma, dosed 79 weeks, study length 79 weeks",2750 mg/kg/day
same,TD50,"rat, strain Fischer 344, males, in feed, site: liver, lesion: hepatocellular carcinoma, dosed 104 weeks, study length 104 weeks",2640 mg/kg/day
NC1CCCCC1,carcinogen call,"mouse, strain ASH-CS1, females, in feed, site: any site (literature study), lesion: several types, types named in the paper, dosed 80 weeks, study length 84 weeks",negative (inactive)
same,carcinogen call,"mouse, strain ASH-CS1, females, in feed, site: liver, lesion: nodular hyperplasia, dosed 80 weeks, study length 84 weeks",negative (inactive)
same,carcinogen call,"mouse, strain ASH-CS1, females, in feed, site: lung, lesion: adenoma, dosed 80 weeks, study length 84 weeks",negative (inactive)
same,carcinogen call,"mouse, strain ASH-CS1, males, in feed, site: any site (literature study), lesion: several types, types named in the paper, dosed 80 weeks, study length 84 weeks",negative (inactive)
same,TD50,"mouse, strain ASH-CS1, males, in feed, site: liver, lesion: nodular hyperplasia, dosed 80 weeks, study length 84 weeks",231 mg/kg/day (inactive)
same,carcinogen call,"mouse, strain ASH-CS1, males, in feed, site: lung, lesion: adenocarcinoma, dosed 80 weeks, study length 84 weeks",negative (inactive)
same,carcinogen call,"mouse, strain ASH-CS1, males, in feed, site: lung, lesion: adenoma, dosed 80 weeks, study length 84 weeks",negative (inactive)
same,carcinogen call,"mouse, strain Swiss, females, in feed, site: urinary bladder, lesion: anaplastic carcinoma, dosed 91 weeks, study length 91 weeks",negative (inactive)
same,carcinogen call,"mouse, strain Swiss, males, in feed, site: urinary bladder, lesion: one or several types, types not named, dosed 91 weeks, study length 91 weeks",negative (inactive)
same,TD50,"rat, strain Charles River albino, males, in feed, site: urinary bladder, lesion: transitional-cell carcinoma, dosed 104 weeks, study length 104 weeks",280 mg/kg/day
same,carcinogen call,"rat, strain FDRL, both sexes, in feed, site: any site (literature study), lesion: several types, types named in the paper, dosed 104 weeks, study length 104 weeks",negative (inactive)
same,carcinogen call,"rat, strain Sprague-Dawley, both sexes, in feed, site: any site (literature study), lesion: malignant tumor, dosed 130 weeks, study length 130 weeks",negative (inactive)
same,TD50,"rat, strain Sprague-Dawley, both sexes, in feed, site: liver, lesion: liver-cell adenoma, dosed 130 weeks, study length 130 weeks",14500 mg/kg/day (inactive)
same,carcinogen call,"rat, strain Sprague-Dawley, both sexes, in feed, site: urinary bladder, lesion: one or several types, types not named, dosed 130 weeks, study length 130 weeks",negative (inactive)
same,TD50,"rat, strain Wistar, females, in feed, site: liver, lesion: hemangioma, dosed 104 weeks, study length 104 weeks",1330 mg/kg/day (inactive)
same,carcinogen call,"rat, strain Wistar, males, in feed, site: liver, lesion: hemangioma, dosed 104 weeks, study length 104 weeks",negative (inactive)
same,TD50,"rat, strain Wistar, males, in feed, site: liver, lesion: nodular hyperplasia, dosed 104 weeks, study length 104 weeks",47000 mg/kg/day (inactive)
